Targets include Histamine H3 receptor (Homo sapiens, UniProt Q9Y5N1); D(1A) dopamine receptor (Homo sapiens, UniProt P21728); D(3) dopamine receptor (Homo sapiens, UniProt P35462).
The target of assay [1] is T1, Muscarinic acetylcholine receptor M2 (Homo sapiens, UniProt P08172).
T1 sequence (P08172 whole entry): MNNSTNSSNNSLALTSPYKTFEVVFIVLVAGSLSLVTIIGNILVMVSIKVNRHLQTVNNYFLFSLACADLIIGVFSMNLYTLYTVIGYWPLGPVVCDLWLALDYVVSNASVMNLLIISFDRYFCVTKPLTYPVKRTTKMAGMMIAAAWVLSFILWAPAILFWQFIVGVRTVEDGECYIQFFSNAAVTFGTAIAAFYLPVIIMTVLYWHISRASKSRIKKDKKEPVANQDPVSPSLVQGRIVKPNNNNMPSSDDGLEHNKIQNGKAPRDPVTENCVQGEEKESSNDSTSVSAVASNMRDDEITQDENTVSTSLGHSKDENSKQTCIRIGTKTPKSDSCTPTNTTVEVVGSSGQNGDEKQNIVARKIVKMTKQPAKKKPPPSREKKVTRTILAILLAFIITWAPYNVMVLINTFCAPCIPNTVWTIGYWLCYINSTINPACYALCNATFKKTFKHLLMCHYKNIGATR

Assay [2] has as its target T2, Prostaglandin G/H synthase 1 (Homo sapiens, UniProt P23219). The assay is classed as functional.
Assay [3] concerns the target Sodium-dependent dopamine transporter (Homo sapiens, UniProt Q01959).
The target of assay [4] is T3, Alpha-1A adrenergic receptor (Homo sapiens, UniProt P35348).
T3 sequence (P35348 whole entry): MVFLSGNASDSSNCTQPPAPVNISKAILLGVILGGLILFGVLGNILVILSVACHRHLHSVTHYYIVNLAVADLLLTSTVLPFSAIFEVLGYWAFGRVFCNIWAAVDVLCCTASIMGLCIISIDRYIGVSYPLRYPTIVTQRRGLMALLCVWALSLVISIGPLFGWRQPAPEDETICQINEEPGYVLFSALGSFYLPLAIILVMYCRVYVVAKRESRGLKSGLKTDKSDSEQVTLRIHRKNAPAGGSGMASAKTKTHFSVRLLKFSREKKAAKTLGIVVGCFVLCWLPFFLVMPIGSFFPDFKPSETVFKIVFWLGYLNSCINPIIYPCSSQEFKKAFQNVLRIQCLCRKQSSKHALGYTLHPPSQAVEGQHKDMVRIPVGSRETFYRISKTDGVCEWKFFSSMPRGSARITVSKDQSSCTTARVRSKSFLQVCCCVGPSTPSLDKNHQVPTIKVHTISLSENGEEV
The assay is classed as functional, cell-based.

Assay [5] has as its target T4, 5-hydroxytryptamine receptor 1A (Homo sapiens, UniProt P08908).
T4 sequence (P08908 whole entry): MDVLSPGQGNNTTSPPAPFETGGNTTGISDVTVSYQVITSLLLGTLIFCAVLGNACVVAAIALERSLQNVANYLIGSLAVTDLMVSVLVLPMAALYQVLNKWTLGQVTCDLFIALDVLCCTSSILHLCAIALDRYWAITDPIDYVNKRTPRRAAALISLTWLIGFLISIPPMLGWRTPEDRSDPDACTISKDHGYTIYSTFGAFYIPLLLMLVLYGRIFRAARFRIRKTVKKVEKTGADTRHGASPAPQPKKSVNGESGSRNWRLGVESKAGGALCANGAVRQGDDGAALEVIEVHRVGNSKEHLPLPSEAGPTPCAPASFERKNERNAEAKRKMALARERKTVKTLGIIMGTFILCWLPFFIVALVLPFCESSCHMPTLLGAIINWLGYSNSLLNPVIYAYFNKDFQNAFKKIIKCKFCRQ

The next assay deals with T5, Thromboxane A2 receptor (Homo sapiens, UniProt P21731).
T5 sequence (P21731 whole entry): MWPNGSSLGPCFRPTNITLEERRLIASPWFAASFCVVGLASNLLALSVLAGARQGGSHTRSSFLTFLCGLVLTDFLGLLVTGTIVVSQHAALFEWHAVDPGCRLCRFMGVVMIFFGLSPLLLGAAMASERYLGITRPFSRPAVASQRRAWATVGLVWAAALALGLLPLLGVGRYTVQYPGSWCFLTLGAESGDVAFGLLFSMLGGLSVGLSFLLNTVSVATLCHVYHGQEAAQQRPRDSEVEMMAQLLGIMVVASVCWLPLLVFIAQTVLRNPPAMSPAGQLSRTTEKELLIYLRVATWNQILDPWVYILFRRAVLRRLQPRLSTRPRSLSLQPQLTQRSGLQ
The assay is classed as functional, cell-based.

In assay [6] the target is T6, Amine oxidase [flavin-containing] A (Homo sapiens, UniProt P21397).
T6 sequence (P21397 whole entry): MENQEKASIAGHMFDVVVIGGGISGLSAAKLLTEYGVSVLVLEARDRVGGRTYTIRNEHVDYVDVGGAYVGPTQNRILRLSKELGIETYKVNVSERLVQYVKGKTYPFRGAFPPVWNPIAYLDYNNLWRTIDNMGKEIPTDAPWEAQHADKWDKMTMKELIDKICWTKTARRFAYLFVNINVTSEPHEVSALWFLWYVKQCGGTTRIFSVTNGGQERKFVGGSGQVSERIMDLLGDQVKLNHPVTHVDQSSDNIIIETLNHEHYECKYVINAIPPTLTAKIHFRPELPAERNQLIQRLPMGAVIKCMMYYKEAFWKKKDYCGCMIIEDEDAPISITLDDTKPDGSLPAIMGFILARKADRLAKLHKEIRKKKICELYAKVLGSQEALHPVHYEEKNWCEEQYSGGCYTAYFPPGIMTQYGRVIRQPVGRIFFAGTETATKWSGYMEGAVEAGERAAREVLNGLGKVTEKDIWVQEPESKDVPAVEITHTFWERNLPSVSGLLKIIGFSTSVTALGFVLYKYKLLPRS
In kind it is functional.

Assay [7] concerns the target T2, Prostaglandin G/H synthase 1. In kind it is functional. The source holds these as a separate data set.
Assay [8] concerns the target Sodium-dependent noradrenaline transporter (Homo sapiens, UniProt P23975).
Another assay has as its target Acetylcholinesterase (Homo sapiens, UniProt P22303). In kind it is functional.
Assay [9] deals with cGMP-inhibited 3',5'-cyclic phosphodiesterase 3A (Homo sapiens, UniProt Q14432). The assay is classed as functional.
For another assay, the target named is Prothrombin (Homo sapiens, UniProt P00734). In kind it is functional.
Assay [10] deals with 3',5'-cyclic-AMP phosphodiesterase 4A (Homo sapiens, UniProt P27815). In kind it is functional.

As a reminder, the AC50 is the midpoint of the concentration-response curve, whichever way the signal moves.
Also: assay procedure not described here.

Sodium-dependent noradrenaline transporter, sequence (P23975 whole entry): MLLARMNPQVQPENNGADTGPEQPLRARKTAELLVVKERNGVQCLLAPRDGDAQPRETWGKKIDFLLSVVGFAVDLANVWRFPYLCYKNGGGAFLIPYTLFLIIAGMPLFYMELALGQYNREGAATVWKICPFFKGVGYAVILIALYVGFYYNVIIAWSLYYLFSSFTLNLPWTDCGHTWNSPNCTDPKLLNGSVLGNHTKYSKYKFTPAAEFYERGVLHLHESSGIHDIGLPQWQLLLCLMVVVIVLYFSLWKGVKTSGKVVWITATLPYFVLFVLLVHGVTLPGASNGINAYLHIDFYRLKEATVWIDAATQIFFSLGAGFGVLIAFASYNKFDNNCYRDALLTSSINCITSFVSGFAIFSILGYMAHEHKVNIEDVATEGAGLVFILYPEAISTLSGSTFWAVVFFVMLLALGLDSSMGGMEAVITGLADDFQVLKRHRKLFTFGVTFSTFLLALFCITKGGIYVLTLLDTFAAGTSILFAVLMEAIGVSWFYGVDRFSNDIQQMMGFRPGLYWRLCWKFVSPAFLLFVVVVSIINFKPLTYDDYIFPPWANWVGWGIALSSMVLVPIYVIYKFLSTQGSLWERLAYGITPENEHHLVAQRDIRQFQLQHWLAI
Histamine H3 receptor, sequence (Q9Y5N1 whole entry): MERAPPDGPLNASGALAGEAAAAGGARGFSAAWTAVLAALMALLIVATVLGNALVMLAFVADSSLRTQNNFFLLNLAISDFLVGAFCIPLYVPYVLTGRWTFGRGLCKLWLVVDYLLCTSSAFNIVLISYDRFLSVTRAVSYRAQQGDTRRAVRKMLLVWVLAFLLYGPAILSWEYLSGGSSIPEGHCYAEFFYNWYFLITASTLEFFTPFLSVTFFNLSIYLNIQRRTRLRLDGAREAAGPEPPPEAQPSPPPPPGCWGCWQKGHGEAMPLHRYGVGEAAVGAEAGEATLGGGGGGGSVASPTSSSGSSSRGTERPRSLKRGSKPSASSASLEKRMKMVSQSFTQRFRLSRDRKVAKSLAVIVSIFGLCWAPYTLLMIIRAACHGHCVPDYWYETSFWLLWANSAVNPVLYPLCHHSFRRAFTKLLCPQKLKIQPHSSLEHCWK
Sodium-dependent dopamine transporter, sequence (Q01959 whole entry): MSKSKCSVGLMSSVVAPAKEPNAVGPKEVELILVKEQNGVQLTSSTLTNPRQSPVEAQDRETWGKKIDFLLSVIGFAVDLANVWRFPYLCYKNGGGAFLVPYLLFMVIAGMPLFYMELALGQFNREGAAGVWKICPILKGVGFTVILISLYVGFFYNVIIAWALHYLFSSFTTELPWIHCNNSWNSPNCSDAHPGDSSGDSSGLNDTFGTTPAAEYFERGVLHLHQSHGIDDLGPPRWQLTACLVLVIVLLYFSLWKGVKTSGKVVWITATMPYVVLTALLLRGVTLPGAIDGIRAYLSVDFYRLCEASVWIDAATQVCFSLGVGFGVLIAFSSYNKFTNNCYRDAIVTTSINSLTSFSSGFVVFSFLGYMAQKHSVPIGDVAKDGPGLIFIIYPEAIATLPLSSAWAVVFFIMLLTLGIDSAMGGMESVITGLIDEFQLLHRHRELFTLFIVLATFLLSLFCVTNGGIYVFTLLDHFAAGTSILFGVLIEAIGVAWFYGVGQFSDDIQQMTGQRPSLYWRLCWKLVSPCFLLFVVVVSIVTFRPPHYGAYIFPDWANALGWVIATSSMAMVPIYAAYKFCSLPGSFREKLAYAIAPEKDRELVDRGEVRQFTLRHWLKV
D(1A) dopamine receptor, sequence (P21728 whole entry): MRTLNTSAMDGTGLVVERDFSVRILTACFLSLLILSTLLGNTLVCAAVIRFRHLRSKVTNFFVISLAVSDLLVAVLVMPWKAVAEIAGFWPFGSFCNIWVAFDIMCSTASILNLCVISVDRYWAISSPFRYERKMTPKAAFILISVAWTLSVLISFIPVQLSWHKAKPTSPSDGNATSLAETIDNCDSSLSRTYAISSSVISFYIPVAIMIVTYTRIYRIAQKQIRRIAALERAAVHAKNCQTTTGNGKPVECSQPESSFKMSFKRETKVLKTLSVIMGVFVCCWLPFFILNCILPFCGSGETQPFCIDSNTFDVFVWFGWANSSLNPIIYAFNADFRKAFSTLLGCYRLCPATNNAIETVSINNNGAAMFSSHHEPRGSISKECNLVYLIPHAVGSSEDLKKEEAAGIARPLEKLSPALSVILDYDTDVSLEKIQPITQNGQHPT
cGMP-inhibited 3',5'-cyclic phosphodiesterase 3A, sequence (Q14432 whole entry): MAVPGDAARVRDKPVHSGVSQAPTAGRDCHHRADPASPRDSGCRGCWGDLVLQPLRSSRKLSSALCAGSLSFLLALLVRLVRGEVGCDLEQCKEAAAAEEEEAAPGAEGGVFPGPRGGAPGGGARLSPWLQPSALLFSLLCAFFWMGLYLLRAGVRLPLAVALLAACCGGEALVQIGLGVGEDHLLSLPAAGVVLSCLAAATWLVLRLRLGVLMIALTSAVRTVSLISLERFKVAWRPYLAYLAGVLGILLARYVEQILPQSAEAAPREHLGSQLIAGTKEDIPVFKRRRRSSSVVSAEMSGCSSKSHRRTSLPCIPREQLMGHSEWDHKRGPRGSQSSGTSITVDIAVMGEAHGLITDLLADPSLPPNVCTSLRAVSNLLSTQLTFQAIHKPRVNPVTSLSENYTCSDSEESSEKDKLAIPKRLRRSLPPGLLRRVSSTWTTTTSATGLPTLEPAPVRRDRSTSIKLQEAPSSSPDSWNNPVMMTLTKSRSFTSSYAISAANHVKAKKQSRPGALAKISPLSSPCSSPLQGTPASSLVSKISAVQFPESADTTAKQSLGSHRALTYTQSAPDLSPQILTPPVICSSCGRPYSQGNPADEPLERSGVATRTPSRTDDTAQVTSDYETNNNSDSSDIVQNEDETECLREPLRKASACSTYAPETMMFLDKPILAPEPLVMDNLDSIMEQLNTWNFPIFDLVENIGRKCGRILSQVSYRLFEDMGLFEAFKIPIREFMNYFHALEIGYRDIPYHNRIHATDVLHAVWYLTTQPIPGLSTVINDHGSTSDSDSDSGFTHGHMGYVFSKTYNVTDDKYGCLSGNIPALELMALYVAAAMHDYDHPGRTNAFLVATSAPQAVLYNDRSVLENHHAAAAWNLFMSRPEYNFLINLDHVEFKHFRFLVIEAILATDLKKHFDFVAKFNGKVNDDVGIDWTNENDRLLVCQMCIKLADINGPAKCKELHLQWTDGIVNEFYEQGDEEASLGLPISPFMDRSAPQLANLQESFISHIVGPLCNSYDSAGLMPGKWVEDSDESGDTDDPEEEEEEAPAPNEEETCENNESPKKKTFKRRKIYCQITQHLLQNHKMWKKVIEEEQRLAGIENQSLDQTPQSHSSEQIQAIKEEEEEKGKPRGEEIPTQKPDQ
D(3) dopamine receptor, sequence (P35462 whole entry): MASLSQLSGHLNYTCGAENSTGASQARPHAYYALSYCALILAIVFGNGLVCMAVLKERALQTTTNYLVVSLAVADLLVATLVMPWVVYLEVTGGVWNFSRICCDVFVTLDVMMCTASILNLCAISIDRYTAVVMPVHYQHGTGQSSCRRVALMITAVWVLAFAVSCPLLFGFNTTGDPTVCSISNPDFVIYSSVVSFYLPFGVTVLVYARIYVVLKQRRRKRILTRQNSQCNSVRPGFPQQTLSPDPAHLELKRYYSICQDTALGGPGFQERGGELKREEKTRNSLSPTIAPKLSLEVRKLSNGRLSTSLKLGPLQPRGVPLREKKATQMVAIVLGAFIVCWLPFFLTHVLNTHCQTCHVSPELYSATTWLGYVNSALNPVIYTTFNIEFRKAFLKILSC
T2 sequence (P23219 whole entry): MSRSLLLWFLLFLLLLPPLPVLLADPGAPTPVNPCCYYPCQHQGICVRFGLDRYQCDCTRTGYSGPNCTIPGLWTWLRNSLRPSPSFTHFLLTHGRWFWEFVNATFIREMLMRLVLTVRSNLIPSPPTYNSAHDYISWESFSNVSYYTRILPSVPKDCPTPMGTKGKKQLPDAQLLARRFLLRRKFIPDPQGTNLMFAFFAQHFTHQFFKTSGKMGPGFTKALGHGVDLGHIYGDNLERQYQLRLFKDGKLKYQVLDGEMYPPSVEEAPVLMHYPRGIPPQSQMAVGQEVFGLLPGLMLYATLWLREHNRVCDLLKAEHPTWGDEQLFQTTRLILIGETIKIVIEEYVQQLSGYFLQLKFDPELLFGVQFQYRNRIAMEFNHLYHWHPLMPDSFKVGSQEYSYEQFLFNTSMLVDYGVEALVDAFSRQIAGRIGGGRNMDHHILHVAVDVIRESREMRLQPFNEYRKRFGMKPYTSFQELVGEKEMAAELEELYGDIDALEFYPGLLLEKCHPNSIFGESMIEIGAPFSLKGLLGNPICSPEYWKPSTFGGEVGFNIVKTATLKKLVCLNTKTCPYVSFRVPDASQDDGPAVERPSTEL
Acetylcholinesterase, sequence (P22303 whole entry): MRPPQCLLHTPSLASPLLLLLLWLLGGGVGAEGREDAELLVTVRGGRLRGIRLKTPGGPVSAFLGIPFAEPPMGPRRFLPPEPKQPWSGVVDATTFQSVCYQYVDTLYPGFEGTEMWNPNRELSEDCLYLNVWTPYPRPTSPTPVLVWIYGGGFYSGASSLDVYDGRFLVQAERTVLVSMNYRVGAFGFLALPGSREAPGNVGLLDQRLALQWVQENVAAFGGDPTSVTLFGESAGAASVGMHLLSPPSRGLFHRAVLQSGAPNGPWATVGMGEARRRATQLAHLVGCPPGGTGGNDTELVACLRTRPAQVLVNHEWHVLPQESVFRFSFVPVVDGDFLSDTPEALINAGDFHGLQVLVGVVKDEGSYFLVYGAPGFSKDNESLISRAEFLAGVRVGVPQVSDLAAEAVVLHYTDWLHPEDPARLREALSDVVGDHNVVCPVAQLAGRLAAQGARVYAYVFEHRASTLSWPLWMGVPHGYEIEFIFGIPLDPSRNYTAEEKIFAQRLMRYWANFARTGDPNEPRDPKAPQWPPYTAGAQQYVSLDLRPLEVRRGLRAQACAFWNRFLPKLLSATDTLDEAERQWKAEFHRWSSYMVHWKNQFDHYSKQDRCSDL

Consider `C[C@H]1CN(C[C@H](Cc2ccccc2)C(=O)NCC(=O)O)CC[C@@]1(C)c1cccc(O)c1` [ALVIMOPAN], for which the AC50 on Histamine H3 receptor was over 30 µM; in [1], over 30 µM; in assay [2], over 3 µM; in assay [3], over 30 µM; in assay [4], over 30 µM; in [5], over 30 µM. In addition, the AC50 (at Thromboxane A2 receptor; in [6]; in assay [7]; at D(1A) dopamine receptor; in assay [8]; at Acetylcholinesterase) was over 30 µM each time. Also, the concentration at half-maximal activity (AC50) (on D(3) dopamine receptor; in [9]; at Prothrombin; in [10]) was over 30 µM in each case.

Regarding `O=C(O)c1ccccc1` [BENZOIC ACID], the AC50 (on Histamine H3 receptor; in assay [1]; in assay [2]; in [3]; in [4]; in assay [5]) was over 30 µM each time. Further, the AC50 (at Thromboxane A2 receptor; in assay [6]; in [7]; on D(1A) dopamine receptor; in assay [8]; on Acetylcholinesterase) was over 30 µM each time. The half-maximal activity concentration (AC50) (at D(3) dopamine receptor; in [9]; on Prothrombin; in assay [10]) was over 30 µM each time.

As to `C[N+](C)(C)CCOP(=O)(O)OP(=O)([O-])OC[C@H]1O[C@@H](n2ccc(N)nc2=O)[C@H](O)[C@@H]1O` [CITICOLINE], the concentration at half-maximal activity (AC50) (at Histamine H3 receptor; in [1]; in [2]; in [3]; in [4]; in assay [5]) was over 30 µM throughout. Further, the half-maximal activity concentration (AC50) (on Thromboxane A2 receptor; in assay [6]; in [7]; on D(1A) dopamine receptor; in [8]; at Acetylcholinesterase) was over 30 µM each time. Further, the half-maximal activity concentration (AC50) (on D(3) dopamine receptor; in assay [9]; at Prothrombin; in assay [10]) was over 30 µM throughout.

On to `C[C@H]1O[C@@H](O[C@H]2CC[C@@]3(C)[C@H](CC[C@@H]4[C@@H]3C[C@@H](O)[C@]3(C)[C@@H](C5=CC(=O)OC5)CC[C@]43O)C2)C[C@H](O)[C@@H]1O[C@H]1C[C@H](O)[C@H](O[C@H]2C[C@H](O)[C@H](O[C@@H]3O[C@H](CO)[C@@H](O)[C@H](O)[C@H]3O)[C@@H](C)O2)[C@@H](C)O1` [DESLANOSIDE], for which the AC50 (on Histamine H3 receptor; in assay [1]; in assay [2]; in assay [3]; in [4]; in assay [5]) was over 30 µM each time. Moreover, the AC50 (on Thromboxane A2 receptor; in [6]; in assay [7]; on D(1A) dopamine receptor; in assay [8]; at Acetylcholinesterase) was over 30 µM each time. For the same molecule, the half-maximal activity concentration (AC50) (on D(3) dopamine receptor; in assay [9]; at Prothrombin; in assay [10]) was over 30 µM each time.

For the molecule `CC[C@H]1OC(=O)[C@H](C)[C@@H](O[C@H]2C[C@@](C)(OC)[C@@H](O)[C@H](C)O2)[C@H](C)[C@@H](O[C@@H]2O[C@H](C)C[C@H](N(C)C)[C@H]2O)[C@](C)(O)C[C@@H](C)[C@@H]2N[C@@H](COCCOC)O[C@H]([C@H]2C)[C@]1(C)O` [DIRITHROMYCIN], the AC50 (on Histamine H3 receptor; in assay [1]; in [2]; in [3]; in assay [4]; in assay [5]) was over 30 µM in each case. In addition, the AC50 on Thromboxane A2 receptor is over 30 µM; in [6], over 30 µM; in [7], 9.63 µM; on D(1A) dopamine receptor it was over 30 µM; in assay [8], over 30 µM; on Acetylcholinesterase, over 30 µM. Moreover, the concentration at half-maximal activity (AC50) (on D(3) dopamine receptor; in assay [9]; at Prothrombin; in assay [10]) was over 30 µM throughout.

The record behind these values is ChEMBL document CHEMBL5291721, “A preclinical secondary pharmacology resource illuminates target-adverse drug reaction associations of marketed drugs” (Nat Commun, 2023).
